This is an account of results in ChEMBL document CHEMBL3507680, “University of Dundee, Gates Library screen for HepG2 cell viability”.

The nature of the data set: Human HepG2 cell viability assay in 384 well format. In kind it is toxicity, cell-based. Also noted: dose 125 nL, time 70.5 hour; cytotoxicity at 70.5 h: concentration not given beside the values. Conditions: HepG2 cells, read-out: Inhibition.
As to `CN(C)c1ncc2c(n1)N(C)CCN(CC1CC1)C2=O`, the cytotoxicity at 70.5 h is -2.69%. The value for `COc1ccc2c(c1)[C@@H](CCNC(C)=O)CC(C)(C)O2` was -1.01%; that for `O=c1[nH][nH]cc1-c1ccnc(NCCc2cccnc2)n1` was -2.07%. For `O=c1[nH][nH]cc1-c1ccnc(NCCN2CCCCC2)n1`, the cytotoxicity at 70.5 h was 30.8%. `c1cc(-c2n[nH]cc2-c2ccnc(N3CCCC3)n2)ccn1`: the cytotoxicity at 70.5 h is -2.36%.

With `O=c1[nH][nH]cc1-c1ccnc(NCCCN2CCOCC2)n1`, the cytotoxicity at 70.5 h is -1.38%.

Take `Cc1ncc(-c2ccnc(NC3CC3)n2)c(-c2cccnc2)n1`: the cytotoxicity at 70.5 h was 14.2%. The value for `CC(=O)Nc1nc2c(s1)C(C)(C)Nc1ccccc1S2` was -2.23%; that for `COc1ccc2[nH]cc(-c3ccnc(NC4CCCC4)n3)c2c1` was -0.782%.

Regarding `N[C@@H]1CCN(Cc2cc(-c3ccccc3OC(F)(F)F)no2)C[C@H]1O`, the cytotoxicity at 70.5 h is -10.6%. Take `Nc1cc(-c2nccnc2N2CCCC2)c2cc[nH]c2n1`: the cytotoxicity at 70.5 h is -11.5%. As to `COc1ccccc1OCCCc1cncc(C(N)=O)c1`, the cytotoxicity at 70.5 h is -14.6%.

Regarding `Cc1nonc1C1CCCN1C(=O)CCc1cc2n(n1)CCCNC2` (configuration not stated), the cytotoxicity at 70.5 h is -7.72%.

Consider `COc1cc(CN2CCCC2)ccc1Oc1ncccc1C(F)(F)F`, for which the cytotoxicity at 70.5 h was 28.7%. Turning to `O=C(CN1CCOCS1(=O)=O)NCc1ccccc1`, the cytotoxicity at 70.5 h came to 25.7%.

Take `CC(C)N1CCC(CC(=O)NC(C(=O)O)c2ccc(F)cc2)CC1` (configuration not stated): the cytotoxicity at 70.5 h is -10.8%. As to `CCc1nnc(N2C[C@@H](CN(C)CCO)[C@@H](CO)C2)s1`, the cytotoxicity at 70.5 h was -12.4%. Consider `CCc1cc(C(=O)N[C@H]2CN(CCS(C)(=O)=O)C[C@@H]2C2CC2)[nH]n1`, for which the cytotoxicity at 70.5 h was -13.2%.

For the compound `COc1ccccc1CN1C(=O)O[C@@H]2CN(S(=O)(=O)N(C)C)C[C@@H]21`, the cytotoxicity at 70.5 h is -0.664%. The value for `CCc1nccn1CCCn1ccnc1-c1[nH]cnc1C` was 5.17%; that for `COc1cccc(N2CCN(C(=O)CO)CC2=O)c1` was -2.57%. With `O=C(O)[C@@H]1CN(C(=O)c2ccc(F)c(F)c2)C[C@H]1c1cccc(F)c1` the figure was -11.2%; with `CCCN1CC2(CCN(c3ncc(F)cn3)CC2)CC1C(=O)O` (configuration not stated), -7.12%.

Take `CC(C)OC(=O)N1CCC(Cc2ccc(C(=O)O)cc2)C1` (configuration not stated): the cytotoxicity at 70.5 h amounted to 27.1%. Take `C[C@@H]1CN(C2(C(=O)N3CC[C@H](O)C3)Cc3ccccc3C2)C[C@H](C)O1`: the cytotoxicity at 70.5 h is -11.9%. On to `CC(NC(=O)C1CCCC1)c1nncn1C(C)C` (configuration not stated), for which the cytotoxicity at 70.5 h was 9.12%. As for `Clc1ccccc1-c1cc(CNc2ncnc3c2CCNCC3)no1`, the cytotoxicity at 70.5 h was 12.2%.

For `O=C(CC1=CSC2=NCCN12)N1CCCC(CCc2cccc(F)c2)C1` (configuration not stated), the cytotoxicity at 70.5 h is -13.5%. As to `O=C(c1ccoc1)N1CCn2nc(CN3CCSCC3)cc2C1`, the cytotoxicity at 70.5 h is 17.6%. The value for `CCC(C)Oc1ccc(CNCCNS(C)(=O)=O)cc1Cl` (configuration not stated) was -0.417%; that for `CCO[C@H]1C[C@@H](O)C12CCN(S(=O)(=O)c1ccccc1OC)CC2` was -13.9%; that for `CNc1nc(C)c(C(=O)N2CCCCC2CCN2CCOCC2)s1` (configuration not stated) was -0.313%. With `COc1ccccc1OC1CN(C(=O)Cc2c(C)nc(N)nc2C)C1` the figure was 1.7%.

Consider `Cc1cc(N2CCN(Cc3ccccc3)CC(O)C2)nc(N)n1` (configuration not stated), for which the cytotoxicity at 70.5 h is -2.11%. With `O=C(CCN1CCCCO1)N1CCC(CO)(CCc2ccccc2)CC1` the figure was -10.2%. Regarding `CO[C@H]1CN(C(=O)c2nc(-c3ccccc3)[nH]c2C)CC[C@H]1N`, the cytotoxicity at 70.5 h came out at 25.8%. The value for `CCn1ncnc1CN1CCc2[nH]cnc2C1Cc1ccccc1` (configuration not stated) was -5.67%; that for `COCCn1ccnc1C1CCN(Cc2ccccc2C#N)CC1` was -8.7%; that for `Cc1ccn(CCNc2ncnc3c2CCN(c2cnccn2)CC3)n1` was 2.31%. On to `C[C@@H]1CN(Cc2cc(C3CCCCC3)no2)CC[C@@]1(O)C1CC1`, for which the cytotoxicity at 70.5 h came out at 6.92%. With `COCC(=O)N1CCc2[nH]nc(-c3ccc4c(c3)OCO4)c2C1` the figure was -3.34%. With `CCn1ncnc1CN1CCc2[nH]cnc2C1CCc1ccccc1` (configuration not stated) the figure was -4.41%; with `Cc1oc(-c2cccc(F)c2F)nc1CN(C)CCO`, -7.35%; with `CCOCc1nc(-c2ccc(F)cc2Cl)n(C)n1`, -15.1%. With `OC(c1ccccc1)c1cn(C2CCN(Cc3nccs3)CC2)nn1` (configuration not stated), the cytotoxicity at 70.5 h was -11.3%. As to `Cc1ccc(N2CCCC(c3[nH]ncc3-c3ccccc3)C2)nn1` (configuration not stated), the cytotoxicity at 70.5 h is -8.56%. `COc1ccc(-c2ncccc2C(=O)N2C[C@H]3CC[C@@H]2C3)cn1`: the cytotoxicity at 70.5 h was -2.51%.

Consider `CCc1nc(NCC2CCCN(C(=O)C3CC3)C2)c2cnn(C)c2n1` (configuration not stated), for which the cytotoxicity at 70.5 h is -16.2%.

With `N#Cc1cccc(N2CCCC(CO)(CCOc3ccccc3)C2)n1` (configuration not stated), the cytotoxicity at 70.5 h was found to be 8.55%. `O=C(CCC1CC1)N1CCC(n2cc(C3(O)CCCC3)nn2)CC1`: the cytotoxicity at 70.5 h amounted to 24.3%. As for `COCC(=O)N1CC[C@]2(O)CCN(C(=O)CCc3ccsc3)C[C@@H]2C1`, the cytotoxicity at 70.5 h was -10.1%.

`CN1CCN(C[C@@H]2CN(Cc3c(Cl)cncc3Cl)C[C@@H]2CO)CC1`: the cytotoxicity at 70.5 h was -11.7%. With `OC1(CNCCc2nc3c(s2)CCCC3)CCNC1` (configuration not stated) the figure was -2.83%; with `COCCN1CCN(C(=O)c2ccccc2C(C)=O)[C@H]2CS(=O)(=O)C[C@H]21`, -5.79%; with `COCCN1CCC(c2nc3c([nH]2)CC(C)(C)CNC3=O)CC1`, -4.63%. With `COCCN1C(=O)[C@H]2CC[C@@H]1CN(Cc1nnc(-c3ccccc3)o1)C2` the figure was -4.89%. The value for `Cc1cnc(C)c(-c2cc(O)c3c(c2)CN(c2ncccn2)CCO3)n1` was 48.2%. Regarding `Cc1ccc([C@H]2CN(C(=O)C3CCC3)C[C@@H]2N)o1`, the cytotoxicity at 70.5 h is -1.49%.

For the compound `COc1ccc2[nH]nc(CN3CCC(C(=O)N4CCCCC4)CC3)c2c1`, the cytotoxicity at 70.5 h was -1.62%. In the case of `CC1(C)CC1(C(=O)N1CC(c2cccnc2)C1)c1ccccc1F` (configuration not stated), the cytotoxicity at 70.5 h is -7.64%. With `O=C(CN1CCCC1c1nc2cc(F)ccc2[nH]1)NCc1ccccn1` (configuration not stated) the figure was -3.28%; with `FC(F)(F)C1CN(c2nc(-c3ccccc3)no2)CCO1` (configuration not stated), -14.1%. With `CCOCCNC(=O)c1cc(COc2cncc(Cl)c2)on1` the figure was -0.86%; with `Nc1nc2c(c(N3CCCC(OCc4ccccn4)C3)n1)CCNCC2` (configuration not stated), -6.98%. With `O=C(CN1CC(c2ccccc2)CC1=O)NCc1cc2n(n1)CCNC2` (configuration not stated) the figure was -8.02%; with `COCCCN(C(=O)c1ccc(-n2ccnc2)cc1)C1CCN(C)CC1`, 35.1%.

For the compound `O=C(CC1=CSC2=NCCCN12)N1CCCCCC1c1ccco1` (configuration not stated), the cytotoxicity at 70.5 h came to 9.09%. On to `CC(C)n1ccnc1C1CCN(C(=O)c2ccccc2N(C)C)CC1`, for which the cytotoxicity at 70.5 h is -2.41%. The value for `CCOc1ccccc1N1CCN(CC2(O)CCCNC2)CC1` (configuration not stated) was -1.19%.

For the compound `COc1cc(C(=O)N2CCC3(CC2)Nc2ccccc2NC3=O)ccn1`, the cytotoxicity at 70.5 h came to 19%. The value for `c1ccc(Cc2nc(CNC3CCC4(CCNCC4)CC3)no2)cc1` was -4.21%; that for `Cc1cccn2c(CNC(C)CCn3cccn3)cnc12` (configuration not stated) was 3.49%. `Cc1nc(CCC(=O)N2Cc3cnc(-c4ccccc4)nc3C2)n[nH]1`: the cytotoxicity at 70.5 h is -14.8%.

As to `Cc1nonc1OCCNC(=O)CCCc1ccc(Cl)cc1`, the cytotoxicity at 70.5 h was -5.01%. With `Cc1cccc(=O)n1CCC(=O)N(C)Cc1cccc2ncccc12` the figure was -15.2%; with `Cc1ccc(-c2nc(CNS(=O)(=O)N(C)C)[nH]c2-c2ccccn2)cc1`, -2.34%. The value for `CCCN1CCC(N2CCN(c3cccc(C)n3)CC2)CC1` was 5.86%; that for `O=C(CCC1CCCN(C(=O)CCN2CCCCO2)C1)N1CCCC1` (configuration not stated) was -5.73%; that for `CCc1nnc(CN(C)Cc2cccc(C(=O)Nc3cnn(C)c3)c2)o1` was 3.92%. In the case of `Fc1ccccc1Cc1noc(CN2CC[C@@H]3CCCC[C@H]3C2)n1`, the cytotoxicity at 70.5 h was -4.61%. With `O=C(O)C1(n2ccnc2)CCN(Cc2cc3ccccc3o2)CC1`, the cytotoxicity at 70.5 h was -5.42%. The value for `CN(Cc1n[nH]c2c1CCCC2)C(=O)c1cccc(CCC(C)(C)O)c1` was -4.47%; that for `CN1C(=O)CC(C(=O)O)C12CCN(Cc1ccc(F)c(Cl)c1)CC2` (configuration not stated) was 0.558%.

For `O=C1NCC2(CCCN(C(=O)c3ccc4c(c3)CCO4)C2)O1` (configuration not stated), the cytotoxicity at 70.5 h is -4.91%. As to `N#Cc1cccc(C(=O)N2CCC3(CCC(=O)N(C4CC4)C3)CC2)c1`, the cytotoxicity at 70.5 h turned out to be 6.81%.

Consider `CCc1nc(NC2CC(=O)N(CC3CCCCC3)C2)ncc1C` (configuration not stated), for which the cytotoxicity at 70.5 h was -8.17%. Consider `Cc1ccc(N2CC[C@@]3(O)CCN(S(C)(=O)=O)C[C@H]3C2)nn1`, for which the cytotoxicity at 70.5 h was found to be 6.8%. The value for `Cc1n[nH]c(C)c1-c1c(C#N)c(N)nc2c1CCc1[nH]ccc1-2` was -3.53%; that for `CCN1CCC(CC(=O)NCC(O)c2cccc(OC)c2)CC1` (configuration not stated) was -6.22%; that for `C=C(C)CN1CCC(n2cc(C3CCCC3)nn2)CC1` was -2.5%. For the compound `Cc1cc(C(=O)NCC2CCS(=O)(=O)C2)ccc1NC(=O)c1ccco1` (configuration not stated), the cytotoxicity at 70.5 h was 2.82%.

Turning to `O=S1(=O)C[C@@H]2[C@H](C1)N(Cc1cc(Cl)cc(Cl)c1)CCN2CCO`, the cytotoxicity at 70.5 h is -1.4%. The value for `CCOC(=O)c1coc(N2CCN(C(=O)c3cccc(OC)c3)CC2)n1` was -8.88%.

For the compound `COc1cccc(CNC(=O)C(C)n2ccnc2C(C)C)c1OC` (configuration not stated), the cytotoxicity at 70.5 h amounted to 23.8%. Consider `CN(Cc1cc2n(n1)CCNC2)Cc1n[nH]c2c1CCCCC2`, for which the cytotoxicity at 70.5 h was -1.36%. As for `COc1ccc(-c2cc(CN)nc3ccnn23)cc1`, the cytotoxicity at 70.5 h was -12.4%. With `CSc1ccc(-c2cc(CN)nc3ccnn23)cc1` the figure was -12.2%.
